Data as given in the supplement of paper PMC10702517.
± gives the standard deviation.

Test: chemical recovery from spiked human plasma; higher = better extraction
Settings: pooled human plasma
[1] = extraction method: SPE only (HLB 96-well)
[2] = extraction method: solvent precipitation (ACN + hexane)
[3] = extraction method: SPE only (HLB 96-well), PES comparison experiment
[4] = extraction method: PES+SPE (3 d PDMS equilibration then HLB SPE)

SMILES: CC(C)CC(C)Nc1ccc(Nc2ccccc2)cc1 (stereo not drawn) [N-(1,3-Dimethylbutyl)-N'-phenyl-1,4-phenylenediamine]
- chemical recovery [1]: 1.42 ± 1.6%

SMILES: CCCCC(CC)COP(=O)(Oc1ccccc1)Oc1ccccc1 (stereo not drawn) [2-Ethylhexyldiphenylphosphate]
- chemical recovery [1]: 38.9 ± 8.9%

SMILES: Oc1ccc2c(c1)[C@@]13CCCC[C@@]1(O)[C@@H](C2)N(CC1CCC1)CC3 [Butorphanol]
- chemical recovery [1]: 34.7 ± 9.8%
- chemical recovery [2]: 65.5 ± 6.6%

SMILES: CC(C)(C)c1cc(-n2nc3ccc(Cl)cc3n2)c(O)c(C(C)(C)C)c1 [UV-327]
- chemical recovery [1]: 1.82 ± 1.6%

SMILES: Clc1ccccc1C(c1ccccc1)(c1ccccc1)n1ccnc1 [Clotrimazole]
- chemical recovery [3]: 56.3 ± 11%

SMILES: NC1CCCCC1 [Cyclohexylamine]
- chemical recovery [4]: 2.9 ± 1.6%
- chemical recovery [1]: 2.07 ± 3.6%
- chemical recovery [2]: 35.9 ± 9.5%

SMILES: CC(=O)OCC(COC(C)=O)OC(C)=O [Triacetin]
- chemical recovery [1]: 30.3 ± 3.4%

SMILES: COP(=S)(OC)Oc1ccc(SC)c(C)c1 [Fenthion]
- chemical recovery [4]: 1.29 ± 0.38%
- chemical recovery [1]: 59.7 ± 2.1%
- chemical recovery [3]: 47 ± 8.3%

SMILES: C[N+](C)(C)Cc1ccccc1 [Benzyltrimethylammonium]
- chemical recovery [1]: 3.88 ± 2.8%
- chemical recovery [2]: 75.8 ± 2.6%

SMILES: O=C1C=C(N(Cc2ccc(Cl)nc2)CC(F)F)CO1 [Flupyradifurone]
- chemical recovery [4]: 43.9 ± 3.3%
- chemical recovery [1]: 39.3 ± 3.1%
- chemical recovery [2]: 76.9 ± 2.6%

SMILES: O=C(O)C(F)(F)C(F)(F)C(F)(F)C(F)(F)C(F)(F)F [Perfluorohexanoic acid]
- chemical recovery [4]: 40.2 ± 4.7%
- chemical recovery [1]: 35.5 ± 3.9%
- chemical recovery [3]: 44.4 ± 8.7%
- chemical recovery [2]: 75.3 ± 4.1%

SMILES: Cc1c(N(C)C)c(=O)n(-c2ccccc2)n1C [Dimethylaminophenazone]
- chemical recovery [4]: 6.91 ± 1.9%
- chemical recovery [1]: 39.3 ± 2.3%
- chemical recovery [2]: 73.8 ± 2%

SMILES: CC(c1ccc(O)cc1)(c1ccc(O)cc1)c1ccc(O)cc1 [1,1,1-Tris(4-hydroxyphenyl)ethane]
- chemical recovery [4]: 59.9 ± 5%
- chemical recovery [1]: 43.2 ± 4.1%
- chemical recovery [2]: 43.3 ± 2.1%

SMILES: ClC(Cl)=C(c1ccc(Cl)cc1)c1ccc(Cl)cc1 [4,4'-DDE]
- chemical recovery [4]: 49.3 ± 15%
- chemical recovery [1]: 0.779 ± 0.23%
- chemical recovery [2]: 41.1 ± 2.4%

SMILES: Sc1ncnc2nc[nH]c12 [6-Mercaptopurine]
- chemical recovery [4]: 0.00575 ± 0.005%
- chemical recovery [1]: 0.069 ± 0.0096%
- chemical recovery [2]: 0.144 ± 0.25%

SMILES: CCCCCCOC(=O)c1ccccc1C(=O)OCCCCCC [Dihexyl-phthalate]
- chemical recovery [1]: 20.6 ± 3.2%

SMILES: CCCCOP(=O)(O)OCCCC [Di-n-butyl-phosphate]
- chemical recovery [4]: 40.8 ± 6.1%
- chemical recovery [1]: 40.5 ± 3.9%

SMILES: CCOP(=S)(OCC)SCSCC [Phorate]
- chemical recovery [4]: 0.327 ± 0.035%
- chemical recovery [1]: 10.2 ± 3.3%
- chemical recovery [2]: 37.8 ± 3.6%

SMILES: Cl[C@H]1[C@H](Cl)[C@@H](Cl)[C@H](Cl)[C@@H](Cl)[C@H]1Cl [delta-HCH]
- chemical recovery [3]: 40.6 ± 13%

SMILES: Cc1ccc(O)c(-n2nc3ccccc3n2)c1 [Drometrizole]
- chemical recovery [1]: 15.4 ± 9.1%
- chemical recovery [2]: 54.1 ± 4.6%

SMILES: CCOc1ccc(C(C)(C)COCc2cccc(Oc3ccccc3)c2)cc1 [Etofenprox]
- chemical recovery [1]: 4.05 ± 1.4%
- chemical recovery [2]: 5.02 ± 0.29%

SMILES: CC[C@H](C)[C@H]1O[C@]2(C=C[C@@H]1C)C[C@@H]1C[C@@H](C/C=C(\C)[C@@H](O[C@H]3C[C@H](OC)[C@@H](O[C@H]4C[C@H](OC)[C@@H](NC)[C@H](C)O4)[C@H](C)O3)[C@@H](C)/C=C/C=C3\CO[C@@H]4[C@H](O)C(C)=C[C@@H](C(=O)O1)[C@]34O)O2 [Emamectin-B1a]
- chemical recovery [1]: 17.2 ± 7.2%

SMILES: O=C(O)C1C(C(=O)O)C2(Cl)C(Cl)=C(Cl)C1(Cl)C2(Cl)Cl (stereo not drawn) [Chlorendic-acid]
- chemical recovery [4]: 27 ± 6.5%
- chemical recovery [1]: 23.9 ± 3.7%
- chemical recovery [2]: 28.2 ± 7.5%

SMILES: CC1NC(C)(C)COC1(O)c1cccc(Cl)c1 [(S,S)-Hydroxybupropion]
- chemical recovery [4]: 5.72 ± 0.93%
- chemical recovery [1]: 36.3 ± 2.2%
- chemical recovery [2]: 59.9 ± 3.2%

SMILES: Cn1c(=O)c2[nH]cnc2n(C)c1=O [Theophyllin]
- chemical recovery [3]: 95.7 ± 22%
- chemical recovery [2]: 101 ± 6.1%

SMILES: CC(C)(C)CC(C)(C)c1ccc(O)cc1 [4-Tert-Octylphenol]
- chemical recovery [1]: 25.4 ± 2%

SMILES: CC(C)CC(C)NC1=CC(=O)C(Nc2ccccc2)=CC1=O (stereo not drawn) [6PPD-quinone]
- chemical recovery [4]: 16.3 ± 4.4%
- chemical recovery [1]: 51.9 ± 4.4%
- chemical recovery [2]: 79.3 ± 4%
